Source: US20100331348A1, “TROPANE DERIVATIVES USEFUL AS PESTICIDES” (SYNGENTA CROP PROTECTION, INC., priority 2007, published 2010)
Where two headings read alike, the source gives them in different places.

What was measured:
[1] = tested on: Puccinia recondita f.sp. tritici; assay: Puccinia recondita f.sp. tritici (wheat brown rust) leaf disk assay; type: in vivo; settings: foliar, 216 h, preventive, nine days after inoculation, read-out: control of fungal infection, Puccinia recondita f.sp. tritici
[2] = tested on: Septoria tritici; assay: Septoria tritici (leaf blotch) growth inhibition in nutrient broth; type: cell-based; settings: Zymoseptoria tritici, 72 hrs, read-out: control of fungal infection, Septoria tritici
[3] = tested on: Plasmopara viticola; assay: Plasmopara viticola (downy mildew of grapevine) leaf disk assay; type: in vivo; settings: foliar, 168 h, preventive, seven days after inoculation, read-out: control of fungal infection, Plasmopara viticola
[4] = tested on: Pyricularia oryzae; assay: whole plant or invertebrate; type: in vivo; settings: foliar, 96 h
[5] = tested on: Erysiphe graminis f.sp. tritici; assay: Erysiphe graminis f.sp. tritici (wheat powdery mildew) leaf disk assay; type: in vivo; settings: Blumeria graminis, foliar, 96 h, preventive, four days after inoculation, read-out: control of fungal infection, Erysiphe graminis fsp. tritici
[6] = tested on: Tetranychus urticae; settings: foliar, 192 h, read-out: control of Tetranychus urticae
[7] = tested on: Heliothis virescens; assay: Heliothis virescens (Tobacco budworm) egg test on artificial diet; settings: 96 h, read-out: control of Heliothis virescens
[8] = tested on: Spodoptera littoralis; assay: Spodoptera littoralis (Egyptian cotton leafworm) cotton leaf disc test; settings: in Gossypium hirsutum, foliar, 72 h, read-out: control of Spodoptera littoralis
[9] = tested on: Plutella xylostella; assay: Plutella xylostella (Diamond back moth) artificial diet test; settings: 120 h, read-out: control of Plutella xylostella
[10] = tested on: Aedes aegypti; assay: Aedes aegypti (Yellow fever mosquito) larvae test; type: in vivo; settings: 48 h
[11] = tested on: Phytophthora infestans; assay: whole plant or invertebrate; type: in vivo; settings: foliar, 96 h, read-out: control of fungal infection, Phytophthora infestans
[12] = tested on: Myzus persicae; assay: Myzus persicae (Green peach aphid) sunflower leaf disc test; settings: foliar, 144 h, read-out: control of Myzus persicae
[13] = tested on: Pythium ultimum; assay: Pythium ultimum (Damping off) growth inhibition in potato dextrose broth; type: cell-based; settings: Globisporangium ultimum, 48 hours, read-out: control of fungal infection, Pythium ultimum
[14] = read-out: control of fungal infection, Pyricularia oryzae (at least 60% list)
[15] = read-out: control of fungal infection, Pyricularia oryzae (at least 80% list)

| Compound | pest or weed control at 200 ppm [1] | inhibition of growth at 200 ppm [2] | pest or weed control at 200 ppm [3] | pest or weed control at 200 ppm [4, 14] | pest or weed control at 200 ppm [4, 15] | melting point | pest or weed control at 200 ppm [5] | pest or weed control at 200 ppm [6] | pest or weed control at 200 ppm [7] | pest or weed control at 200 ppm [8] | pest or weed control at 200 ppm [9] | pest or weed control at 2 ppm [10] | pest or weed control at 200 ppm [11] | pest or weed control at 200 ppm [12] | inhibition of growth at 200 ppm [13] |
| --- | --- | --- | --- | --- | --- | --- | --- | --- | --- | --- | --- | --- | --- | --- | --- |
| CCc1ncnc(N2[C@@H]3CC[C@H]2CC(O)(COc2ccc(C)cc2)C3)c1Cl (some centres unmarked) [Example 1.159] | ≥ 80% | ≥ 60% | ≥ 80% |  |  |  |  |  |  |  |  |  |  |  |  |
| FC(F)(F)c1cccc(OC2C[C@H]3CC[C@@H](C2)N3c2ncnc3ccsc23)n1 (some centres unmarked) [Example 2.78] | ≥ 80% | ≥ 60% |  | ≥ 60% | ≥ 80% | 109 °C |  |  |  |  |  |  |  |  |  |
| Cc1csc2c(N3[C@@H]4CC[C@H]3CC(Oc3cccc(C(F)(F)F)n3)C4)ncnc12 (some centres unmarked) [Example 2.82] |  | ≥ 60% |  | ≥ 60% |  | 123 °C | ≥ 80% |  |  |  |  |  |  |  |  |
| CCc1ncnc(N2[C@@H]3CC[C@H]2CC(O/N=C(\C)c2cccnc2)C3)c1Cl (some centres unmarked) [Example 2.97] |  | ≥ 60% | ≥ 80% | ≥ 60% |  |  |  | ≥ 80% |  |  |  |  |  |  |  |
| CCc1ncnc(N2C3CCC2CC(=Cc2ccc(C)cc2)C3)c1Cl [Example 3.7] | ≥ 80% |  |  |  |  |  |  | ≥ 80% | ≥ 80% | ≥ 80% | ≥ 80% | ≥ 80% |  |  |  |
| CCOC(=O)C=C1CC2CCC(C1)N2c1ncnc(CC)c1Cl [Example 3.8] | ≥ 80% | ≥ 60% |  |  |  |  |  |  | ≥ 80% |  |  | ≥ 80% |  |  |  |
| CCc1ncnc(N2C3CCC2CC(=Cc2ccc(OC)cc2)C3)c1Cl [Example 3.9] |  |  |  | ≥ 60% | ≥ 80% |  |  | ≥ 80% | ≥ 80% | ≥ 80% | ≥ 80% | ≥ 80% |  |  |  |
| CCc1ncnc(N2C3CCC2CC(=CCOc2cc(C)nc(C)n2)C3)c1Cl [Example 3.15] | ≥ 80% | ≥ 60% |  |  | ≥ 80% |  |  |  | ≥ 80% |  |  | ≥ 80% |  |  |  |
| Clc1ccc(C=C2CC3CCC(C2)N3c2ncnc3sccc23)cc1 [Example 3.20] | ≥ 80% |  | ≥ 80% | ≥ 60% | ≥ 80% |  |  | ≥ 80% | ≥ 80% | ≥ 80% | ≥ 80% | ≥ 80% |  |  |  |
| C(=C1CC2CCC(C1)N2c1ncnc2sccc12)c1ccccc1 [Example 3.27] | ≥ 80% |  | ≥ 80% | ≥ 60% | ≥ 80% |  |  | ≥ 80% | ≥ 80% | ≥ 80% | ≥ 80% | ≥ 80% | ≥ 80% |  |  |
| Cc1ccc(OCC=C2CC3CCC(C2)N3c2ncnc3sccc23)cn1 [Example 3.29] | ≥ 80% |  | ≥ 80% |  | ≥ 80% |  |  |  | ≥ 80% |  | ≥ 80% | ≥ 80% | ≥ 80% | ≥ 80% |  |
| CCCCCC(=O)C=C1CC2CCC(C1)N2c1ncnc2sccc12 [Example 3.35] | ≥ 80% | ≥ 60% | ≥ 80% | ≥ 60% | ≥ 80% |  |  |  |  |  | ≥ 80% | ≥ 80% |  |  |  |
| CCc1ncnc(N2C3CCC2CC(=NOCc2ccc(Cl)cc2)C3)c1Cl [Example 5.21] | ≥ 80% |  |  |  | ≥ 80% |  | ≥ 80% |  | ≥ 80% |  | ≥ 80% | ≥ 80% | ≥ 80% | ≥ 80% |  |
| FC(F)(F)c1ccc(CON=C2CC3CCC(C2)N3c2ncnc3ccccc23)cc1 [Example 5.128] | ≥ 80% | ≥ 60% |  | ≥ 60% | ≥ 80% |  |  | ≥ 80% | ≥ 80% |  | ≥ 80% | ≥ 80% |  |  | ≥ 60% |
| Fc1ccc(F)c(CON=C2CC3CCC(C2)N3c2ncnc3ccccc23)c1F [Example 5.134] | ≥ 80% | ≥ 60% |  | ≥ 60% |  |  |  |  | ≥ 80% |  | ≥ 80% | ≥ 80% |  |  | ≥ 60% |
| Fc1cc(C(F)(F)F)ccc1CON=C1CC2CCC(C1)N2c1ncnc2ccccc12 [Example 5.135] | ≥ 80% | ≥ 60% |  | ≥ 60% | ≥ 80% |  |  | ≥ 80% | ≥ 80% |  | ≥ 80% | ≥ 80% |  |  | ≥ 60% |
| Fc1ccccc1CON=C1CC2CCC(C1)N2c1ncnc2sccc12 [Example 5.211] | ≥ 80% |  |  |  |  |  | ≥ 80% |  | ≥ 80% | ≥ 80% | ≥ 80% | ≥ 80% | ≥ 80% |  |  |
| Fc1cccc(F)c1CON=C1CC2CCC(C1)N2c1ncnc2sccc12 [Example 5.215] | ≥ 80% |  | ≥ 80% | ≥ 60% | ≥ 80% |  | ≥ 80% | ≥ 80% |  | ≥ 80% | ≥ 80% | ≥ 80% |  | ≥ 80% |  |
| Fc1ccc(F)c(CON=C2CC3CCC(C2)N3c2ncnc3sccc23)c1 [Example 5.218] | ≥ 80% |  |  | ≥ 60% | ≥ 80% |  | ≥ 80% | ≥ 80% |  |  | ≥ 80% | ≥ 80% |  | ≥ 80% | ≥ 60% |
| Fc1ccc(CON=C2CC3CCC(C2)N3c2ncnc3sccc23)c(F)c1F [Example 5.222] | ≥ 80% |  | ≥ 80% | ≥ 60% |  |  | ≥ 80% |  |  |  | ≥ 80% | ≥ 80% |  | ≥ 80% | ≥ 60% |
| c1ccc(CC2CC3CCC(C2)N3c2ncnc3sccc23)cc1 (centres unmarked) [Example 7.6] | ≥ 80% | ≥ 60% | ≥ 80% | ≥ 60% | ≥ 80% |  |  |  | ≥ 80% |  |  | ≥ 80% |  |  |  |
| COC(=O)CC1CC2CCC(C1)N2c1ncnc2sccc12 (centres unmarked) [Example 7.9] |  | ≥ 60% |  |  |  |  |  | ≥ 80% |  |  | ≥ 80% | ≥ 80% |  |  |  |
| Clc1ccc(CC2CC3CCC(C2)N3c2ncnc3sccc23)cc1 (centres unmarked) [Example 7.10] | ≥ 80% | ≥ 60% | ≥ 80% | ≥ 60% | ≥ 80% |  |  |  | ≥ 80% |  |  | ≥ 80% |  |  |  |
| CCc1ncnc(N2C3CCC2CC(Cc2ccccc2)C3)c1Cl (centres unmarked) [Example 7.23] | ≥ 80% | ≥ 60% |  |  |  |  |  |  |  |  | ≥ 80% | ≥ 80% |  |  |  |
| CCc1ncnc(N2C3CCC2CC(O)(CC#Cc2ccccc2)C3)c1Cl (centres unmarked) [Example 7.35] | ≥ 80% | ≥ 60% | ≥ 80% | ≥ 60% |  |  |  |  |  |  |  |  |  |  |  |
| CCc1ncnc(N2C3CCC2CC(CC(=O)OC)C3)c1Cl (centres unmarked) [Example 7.36] |  | ≥ 60% |  |  |  |  |  | ≥ 80% | ≥ 80% |  | ≥ 80% | ≥ 80% |  |  |  |
